Assay [1] deals with T1, CCR5 receptor (Homo sapiens, UniProt P51681). Kind of assay: 125I-MIP-1β binding competition assay. Details: expressed in transfected cells; host or cells: Chinese hamster ovary recombinant cells (membranes). As for the experimental part: The ability of the compounds of the invention to inhibit the binding of […] was assessed by an in vitro radioligand binding assay. Membranes were prepared from Chinese hamster ovary recombinant cells which express the human CCR5 receptor. The membranes were incubated with 0.05 nM ^125I-MIP-1β in a HEPES 25 mM/CaCl2 5 mM/MgCl2 1 mM buffer and various concentrations of the compounds of the invention. The amount of iodinated MIP-1β bound to the receptor was determined after filtration by the quantification of membrane associated radioactivity using the TopCount-NXT reader (Packard). Competition curves were obtained for compounds of the invention and the concentration of compound which displaced 50% of bound radioligand (IC50) was calculated
T1 sequence (P51681 whole entry): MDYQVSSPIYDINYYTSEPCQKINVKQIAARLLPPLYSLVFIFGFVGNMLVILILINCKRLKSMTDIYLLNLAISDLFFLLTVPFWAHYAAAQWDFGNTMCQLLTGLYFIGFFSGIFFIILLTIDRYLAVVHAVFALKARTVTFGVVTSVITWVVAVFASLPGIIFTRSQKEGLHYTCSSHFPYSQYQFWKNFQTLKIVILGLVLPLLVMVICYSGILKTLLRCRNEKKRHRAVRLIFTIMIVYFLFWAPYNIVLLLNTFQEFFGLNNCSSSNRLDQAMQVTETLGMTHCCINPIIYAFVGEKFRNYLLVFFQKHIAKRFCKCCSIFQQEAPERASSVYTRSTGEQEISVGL

For assay [2], the target named is T1, CCR5 receptor. Kind of assay: Calcium flux aequorin-based assay (agonist response). The assay is classed as cell-based. The conditions noted are these: for pEC50: Chinese hamster ovary cells expressing the CCR5 receptor, apoaequorin and Gα16, read-out: Aequorin/Ca++ assay EC50. Details: expressed in transfected cells; host or cells: Chinese hamster ovary cells coexpressing apoaequorin and Gα16. As for the experimental part: The aequorin assay uses the responsiveness of aequorin to intracellular calcium release induced by the activation of G Protein Coupled Receptors (Stables et al., 1997, Anal. Biochem. 252:115-126; Detheux et al., 2000, J. Exp. Med., 192 1501-1508). Briefly, Chinese hamster ovary cells expressing the CCR5 receptor are transfected to coexpress apoaequorin and Gα16. Cells are incubated with 5 μM Coelenterazine H (Promega) overnight at room temperature, and resuspended at a concentration of 0.1×10^6 cells/ml. Cells are then mixed with test agonist compounds and light emission by the aequorin is recorded with a luminometer (PDSS 6000-Hamamatsu) for 30 sec. Results are expressed as Relative Light Units (RLU). Controls include cells not expressing CCR5 in order to exclude possible non-specific effects of the test compound.
An agonist response is defined as an increase of light emission by aequorin corresponding to 10% or more of the light emitted by a reference sample of cells expressing CCR5 and treated with a the reference agonist ligand MIP-1β. The results of the tested compounds are reported as the concentration of compound required to reach 50% (EC50) of the maximum level of light emission induced by these compounds.

Assay [3] has as its system recombinant and non-replicative HIV virus coding for the firefly luciferase. Kind of assay: Inhibitory effect on HIV infection to MAGI-CCR5 cells (HIV-luciferase assay). The assay is classed as cell-based. As for the experimental part:
The inhibitory activity of the compounds of the invention on HIV infection is measured on the human MAGI R5 recombinant cell line coexpressing the human CCR5 receptor and CD4 at their extracellular membrane. MAGI R5 cells are plated in black view plates at 10,000 cells/well and incubated with the appropriate concentrations of the compounds of the invention during 1 hour. This is followed by a 24 hours infection period with the recombinant and non-replicative HIV virus coding for the firefly luciferase (Bona et al., 2006, Antimicrob. Agents Chemother. 50: 3407-3417). The inhibitory effect of the tested compound on virus entry in MAGI R5 cells is measured by a reduction of luciferase signal (TopCount-NXT reader (Packard) and detection luciferase kit: Steadylite HTS assay kit (Perkin Elmer)) in the presence of the compound of the invention relative to the maximum signal obtained from cells infected with the virus without any added compound. The results of the tested compounds are reported as the concentration of compound required to inhibit 50% (IC50) of the maximum luciferase signal.

Assay [4] shares this test system. The description is as above. The assay is classed as cell-based. The conditions noted are these: 10 μM of the compound; MAGI R5 cells (footnote b).
The mark [5] stands for this setting: membranes of CHO cells expressing human CCR5, 0.05 nM 125I-MIP-1β, read-out: 125I-MIP-1β binding assay IC50.
The mark [6] stands for this setting: Human immunodeficiency virus 1, MAGI-CCR5, read-out: HIV-luciferase assay IC50.

pEC50, pIC50: −log10 of the molar value. Like-named read-outs stand apart in the source and are kept apart here.

For orientation: pIC50 means the negative decadic logarithm of the IC50, by convention in mol/L. Regarding `O=C(CC1CCN(CCN(c2ccccc2)c2ccccc2)CC1)NCc1ccc(Cl)cc1` [Compound 15], the pIC50 is 6.98 on CCR5 receptor [1] (setting [5]) and 5.84 in assay [3] (setting [6]). The pEC50 on CCR5 receptor [2] is 5.36.
Take `COc1ccc(CNC(=O)CC2CCN(CCN(c3ccccc3)c3ccccc3)CC2)cc1` [Compound 16]: on CCR5 receptor [1] (setting [5]), the pIC50 was 6.84. Also, the “level of inhibition of luciferase activity compared to the inhibition induced by Rantes at 100 nM” value in assay [4] is on record as 79.6%^b. In addition, on CCR5 receptor [2], the pEC50 is 6.12.
On to `Cc1ccc(NC(=O)CC2CCN(CCN(c3ccccc3)c3ccccc3)CC2)cc1` [Compound 8], for which the pIC50 at CCR5 receptor [1] (setting [5]) is 7.87; in assay [3] (setting [6]), 5.67. For the same compound, at CCR5 receptor [2], the pEC50 is 6.37.
With `Cc1cc(NC(=O)CC2CCN([C@H](C)CN(c3ccccc3)S(=O)(=O)CC3CCC(F)(F)CC3)CC2)[nH]n1` [Compound 55], at CCR5 receptor [1] (range over the group, read-out: IC50 (125I-MIP-1β binding), range stated in text for the listed compounds), the pIC50 is 6.36 to 7.88.
As for `COc1ccc(NC(=O)CC2CCN(CC[C@H](NC(=O)C3CCC(F)(F)CC3)c3ccccc3)CC2)cc1` [Compound 69], at CCR5 receptor [2], the pEC50 is 7.44. The pIC50 in assay [3] (setting [6]) is 8.57.
As for `CCCCc1ccc(NC(=O)CC2CCN(CCN(c3ccccc3)c3ccccc3)CC2)cc1` [Compound 27], the pIC50 on CCR5 receptor [1] (setting [5]) was 6.78. The “level of inhibition of luciferase activity compared to the inhibition induced by Rantes at 100 nM” value in assay [4] is reported as 31.5%^b. At CCR5 receptor [2], the pEC50 was 5.63.
`C[C@H](CN(c1ccccc1)S(=O)(=O)Cc1ccccc1)N1CCC(CC(=O)Nc2ccc(F)cc2F)CC1` [Compound 98]: the pIC50 at CCR5 receptor [1] (setting [5]) is 9.40; in assay [3] (setting [6]), 8.44. In addition, on CCR5 receptor [2], the pEC50 was 7.22.
With `O=C(CC1CCN(CCN(c2ccccc2)c2ccccc2)CC1)NCc1ccccc1` [Compound 50], the pIC50 on CCR5 receptor [1] (setting [5]) is 6.36; in assay [3] (Human immunodeficiency virus 1, MAGI, read-out: IC50 (HIV infection of MAGI R5 cells)) it was 5.80; in assay [3] (setting [6]) it was 5.79. Further, on CCR5 receptor [2] (10 μM of the compound, activity too low for accurate EC50 calculation (footnote a)), the “level of calcium/aequorin response compared to the calcium/aequorin response of MIP-1β at 100 nM” value is “+9.5%^a”.
Take `O=C(CC1CCN(CCN(c2ccccc2)c2ccccc2)CC1)Nc1ccc(Cl)cc1` [Compound 6]: the results for the pIC50 (on CCR5 receptor [1] (setting [5]); in assay [3] (setting [6])) were 6.94 and 5.69, respectively. For the same compound, the pEC50 at CCR5 receptor [2] was 5.75.
On to `COc1ccc(NC(=O)CC2CCN([C@H](C)CN(c3ccccc3)S(=O)(=O)Cc3ccccc3)CC2)cc1` [Compound 96], for which the pIC50 at CCR5 receptor [1] (setting [5]) is 9.40; in assay [3] (setting [6]), 8.41. For the same compound, the pEC50 on CCR5 receptor [2] was 7.15.
Turning to `O=C(CC1CCN(CCN(c2ccccc2)c2ccccc2)CC1)Nc1ccc(F)cc1` [Compound 4], the negative-log IC50 (pIC50) at CCR5 receptor [1] (setting [5]) was 7.15; in assay [3] (setting [6]), 5.61. Further, the pEC50 at CCR5 receptor [2] was 6.15.
On to `O=C(CC1CCN(CCN(c2ccccc2)c2ccccc2)CC1)NC1CCCCC1` [Compound 17], for which the pIC50 at CCR5 receptor [1] (setting [5]) was 6.87. Further, in assay [4], the “level of inhibition of luciferase activity compared to the inhibition induced by Rantes at 100 nM” value is listed as 55.8%^b. The pEC50 at CCR5 receptor [2] was 6.36.

Values taken from patent publication US20090048291A1, “Novel Piperidine-4-Acetic Acid Derivatives and Their Use” (Euroscreen S.A., priority 2007, published 2009).
